# Activity calls are given as the source filed them. No cut-off for these calls is given here.
# Assays:
# [1] = system: A-431; experiment: Cytotoxic activity against human A431 cells assessed as cell survival at 5 uM; type: functional; details: read-out: Activity
# [2] = system: HT29-AK; experiment: Cytotoxic activity against human HT29-AK cells assessed as cell survival at 5 uM; type: functional, cell-based
# [3] = system: A-431; experiment: Cytostatic activity against human A431 cells; type: functional, cell-based
# [4] = Partition coefficient, log P of the compound; type: physicochemical; details: octanol/water
# [5] = Dissociation constant, pKa at physiological pH; type: physicochemical
# [6] = Solubility in water; type: physicochemical; details: buffer
# [7] = Cytostatic activity against human HT29-AK cells; type: functional
SMILES,viability at 5 µM [1] [%],Activity [2],IC50 [3] [µM],logP [4],pKa [5],solubility [6],IC60 [7] [µM]
CCOc1ccc2c3c(nccc13)-c1ccc3nc4c5cccnc5c5ncccc5c4nc3c1N2,85,inactive,,,,,
CCOc1ccc2c3c(nccc13)-c1ccc(N)cc1N2,,,2.1,2.62,5.3,Soluble,1.35
Clc1ccc2c(c1)Nc1cccc3ccnc-2c13,,,,3.69,4.5,,
